Results on one compound are retold here after patent publication US20080161273A1, “Method of Using Adapalene in Acne Maintenance Therapy” (GALDERMA RESEARCH & DEVELOPMENT, priority 2004, published 2008).

Where two headings read alike, the source gives them in different places.

Series [1] relates to acne vulgaris. The experiment in a line: 16-week maintenance therapy study after adapalene-doxycycline combination therapy: efficacy (maintenance rate, lesion counts, global severity). The format is in vivo, human. The source says: The efficacy and safety of the adapalene gel 0.1% (Galderma Laboratories, LP, Ft. Worth, Tex.) as a maintenance therapy were compared to gel vehicle in a randomized, multicenter, vehicle-controlled, investigator-blind, parallel group study conducted at 34 centers in the United States between Nov. 13, 2003 and May 25, 2004. This study was designed to set a high threshold for achieving success. […] These subjects were re-randomized consecutively in a 1:1 ratio to receive either adapalene gel 0.1% or adapalene gel vehicle once-daily in the evening for an additional 16 weeks. Subjects were stratified by the treatment assignment received in the previous study using an interactive voice responsive system. The randomization schedule remained blinded from those involved in the clinical conduct of the study. The integrity of the blinding was ensured by packaging the topical medication in identical tubes and requiring a third party other than the investigator/evaluator to dispense the medication. Exclusion criteria prohibited enrollment of subjects with acne requiring isotretinoin therapy or other dermatologic conditions requiring interfering treatment. Women were excluded if they were pregnant, nursing, or planning a pregnancy as were men with facial hair that would interfere with the assessments. Subjects were provided Cetaphil® daily facial moisturizer SPF 15 (Galderma Laboratories, LP., Ft Worth, Tex.) to use as needed for the symptomatic relief of skin dryness or irritation. Evaluations for this study occurred at baseline and at weeks 4, 8, 12, and 16. The final visit from the previous 12-week combination study served as the baseline visit for this 16-week maintenance study. The primary efficacy variable was the failure rate at week 16, defined as the percentage of subjects unable to maintain 50% of total lesion count improvement from the previous 12-week combination therapy study (e.g., a subject entering the maintenance phase after having lost 40 lesions in the combination study was considered as a failure if the lesion count at the end of the maintenance study was increased by more than 20 lesions). Data from this assessment is presented graphically herein as a maintenance rate, which is simply 100% minus the failure rate. Secondary efficacy variables included lesion counts (total, inflammatory and non inflammatory), failure rates for inflammatory and non-inflammatory lesions, as well as global severity and global improvement of the disease. At the last visit, subject satisfaction was assessed via a 5-question survey. All data analyses were carried out according to a pre-established analysis plan. A sample size of 113 subjects per group was deemed necessary to detect a statistically significant difference in failure rate between treatment groups based on the use of a 2-tailed test with […] and a power of 90%; an assumption of a 15% efficacy difference between the 2 treatment groups; and a dropout rate of 10%. Three study populations were analyzed. The safety population was defined as all patients randomized and treated at least once. The intent-to-treat (ITT) population included all randomized subjects who were dispensed study medication. The per-protocol (PP) population included all randomized subjects without any major protocol deviations. […] Analyses for efficacy were performed on week 16 data for the ITT population and the PP population. Last observation carried forward (LOCF) methodology was used to account for missing data for the ITT population analysis (lesion counts). In addition, all subjects with missing data at week 16 were considered failures for the failure rate analysis (worst case). Age was tested at baseline with the analysis of variance (ANOVA) model with treatment, center, and their interaction as factors. All other variables were analyzed by using the Cochran-Mantel-Haenzsel (CMH) test controlling for “analysis center” and previous treatment for both the ITT and PP populations. […]

The nature of series [2]: 16-week maintenance therapy study: safety, local facial tolerability, adverse events, discontinuation. The format is in vivo, human. From the text:
The efficacy and safety of the adapalene gel 0.1% (Galderma Laboratories, LP, Ft. Worth, Tex.) as a maintenance therapy were compared to gel vehicle in a randomized, multicenter, vehicle-controlled, investigator-blind, parallel group study conducted at 34 centers in the United States between Nov. 13, 2003 and May 25, 2004. This study was designed to set a high threshold for achieving success. […] These subjects were re-randomized consecutively in a 1:1 ratio to receive either adapalene gel 0.1% or adapalene gel vehicle once-daily in the evening for an additional 16 weeks. Subjects were stratified by the treatment assignment received in the previous study using an interactive voice responsive system. The randomization schedule remained blinded from those involved in the clinical conduct of the study. The integrity of the blinding was ensured by packaging the topical medication in identical tubes and requiring a third party other than the investigator/evaluator to dispense the medication.
Safety and tolerability were assessed through evaluations of local facial tolerability and adverse events. At each visit, the investigator rated erythema, scaling, dryness, and stinging/burning on a scale ranging from 0 (none) to 3 (severe). Mean scores at each postbaseline visit and worst score (worst observation recorded for a subject during the post-baseline period) were recorded. Adverse events were also evaluated at each visit.
Three study populations were analyzed. The safety population was defined as all patients randomized and treated at least once. The intent-to-treat (ITT) population included all randomized subjects who were dispensed study medication. The per-protocol (PP) population included all randomized subjects without any major protocol deviations.

Series [3] in a line: 5-question subject satisfaction survey at last visit of the maintenance study. The format is in vivo, human. The note with it: P=0.94 vs vehicle. The source says:
The primary efficacy variable was the failure rate at week 16, defined as the percentage of subjects unable to maintain 50% of total lesion count improvement from the previous 12-week combination therapy study (e.g., a subject entering the maintenance phase after having lost 40 lesions in the combination study was considered as a failure if the lesion count at the end of the maintenance study was increased by more than 20 lesions). Data from this assessment is presented graphically herein as a maintenance rate, which is simply 100% minus the failure rate. Secondary efficacy variables included lesion counts (total, inflammatory and non inflammatory), failure rates for inflammatory and non-inflammatory lesions, as well as global severity and global improvement of the disease. At the last visit, subject satisfaction was assessed via a 5-question survey.

The conditions of series [4]: applied as monotherapy, versus tazarotene and tretinoin formulations, cited from earlier work.

As to `COc1ccc(-c2ccc3cc(C(=O)O)ccc3c2)cc1C12CC3CC(CC(C3)C1)C2` [adapalene, 6-[3-(1-adamantyl)-4-methoxyphenyl]-2-naphtoic acid], in series [1] (16 weeks, vehicle group gradually increased), the “lesion counts during the course of the study versus baseline” value is reported as “remained stable or decreased”. Further, in series [1] (P=0.005 for distribution of severity scores vs vehicle), the “subjects "clear" or "almost clear" in global severity assessment” value was found to be 27%. In addition, in series [1] (P=0.01), the “global assessment of improvement versus vehicle” value was “significant advantages”. Besides, the “total lesion counts relative to vehicle” value in series [1] (end point week 16, ITT, LOCF, P=0.005) is listed as “significantly lower”. In addition, in series [1] (end point week 16, ITT, LOCF, P=0.01), the “inflammatory lesion counts relative to vehicle” value is on record as “significantly lower”. The “noninflammatory lesion counts relative to vehicle” value in series [1] (end point week 16, ITT, LOCF, P=0.02) was “significantly lower”. The “maintenance rate, total lesion counts (subjects maintaining at least 50% of improvement from previous combination study)” value in series [1] (week 16, ITT, worst case (missing data = failure), once-daily for 16 weeks, P<0.001 vs vehicle) was found to be 75%. Also, in series [2] (16-week study), the “overall safety and tolerability” value is “safe and well tolerated”; the “subjects experiencing adverse events” value is 25%; the “subjects with treatment-related adverse events (percentage)” value came to 2.4%. Further, the “subjects with treatment-related adverse events (number)” value in series [2] (16-week study, 126 subjects in group) worked out at 3 subjects. The “mean worst score for each local cutaneous tolerability variable, large majority of subjects” value in series [2] (scale none, mild, moderate, severe) is on record as “none or mild”. Further, the “subjects not bothered by side effects” value in series [3] stood at 90%. Besides, the “tolerability / cutaneous irritation profile versus other topical retinoids” value in series [4] was “more favorable cutaneous irritation profile”. In addition, in series [4] (listed as Adapalene), the “tolerability / cutaneous irritation profile versus other topical retinoids” value is “more favorable tolerability profile”.
